Where “and” joins values, the source holds several entries; their conditions need not be identical. Equal entries are not always repeated. Inconclusive results and toxic doses are left out.
Tested on: P388 leukemia ip, CD2F1 mice, survival T/C
Assay: NCI In Vivo Anticancer Drug Screen. Data for tumor model P388 Leukemia (intraperitoneal) in CD2F1 (CDF1) mice
Settings: endpoint: median survival time, higher = longer survival
Procedure, shortened: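 Mice carrying the transplanted tumor received test compound or vehicle. Survival was recorded in each group, and the value is the treated-group measurement divided by that of the vehicle-treated control group.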

[1] = dose: 60.0 mg/kg/injection, schedule: Q01DX005 (ip), vehicle: saline with Tween-80
[2] = dose: 120.0 mg/kg/injection, schedule: Q01DX005 (ip), vehicle: saline with Tween-80
[3] = dose: 240.0 mg/kg/injection, schedule: Q01DX005 (ip), vehicle: saline with Tween-80
[4] = dose: 50.0 mg/kg/injection, schedule: Q01DX009 (ip), vehicle: Klucel (hydroxypropylcellulose) (HPC)
[5] = dose: 25.0 mg/kg/injection, schedule: Q01DX009 (ip), vehicle: other
[6] = dose: 50.0 mg/kg/injection, schedule: Q01DX009 (ip), vehicle: other
[7] = dose: 100.0 mg/kg/injection, schedule: Q01DX009 (ip), vehicle: other
[8] = dose: 50.0 mg/kg/injection, schedule: Q01DX009 (ip), vehicle: saline with Tween-80
[9] = dose: 25.0 mg/kg/injection, schedule: Q04DX002 (ip), vehicle: saline with Tween-80
[10] = dose: 50.0 mg/kg/injection, schedule: Q01DX005 (ip), vehicle: Klucel (hydroxypropylcellulose) (HPC)
[11] = dose: 100.0 mg/kg/injection, schedule: Q01DX005 (ip), vehicle: Klucel (hydroxypropylcellulose) (HPC)
[12] = dose: 200.0 mg/kg/injection, schedule: Q01DX005 (ip), vehicle: Klucel (hydroxypropylcellulose) (HPC)
[13] = dose: 100.0 mg/kg/injection, schedule: Q04DX003 (ip), vehicle: saline with Tween-80
[14] = dose: 200.0 mg/kg/injection, schedule: Q04DX003 (ip), vehicle: saline with Tween-80
[15] = dose: 400.0 mg/kg/injection, schedule: Q04DX003 (ip), vehicle: saline with Tween-80
[16] = dose: 50.0 mg/kg/injection, schedule: Q01DX005 (ip), vehicle: saline with Tween-80
[17] = dose: 100.0 mg/kg/injection, schedule: Q01DX005 (ip), vehicle: saline with Tween-80
[18] = dose: 200.0 mg/kg/injection, schedule: Q01DX005 (ip), vehicle: saline with Tween-80
[19] = dose: 100.0 mg/kg/injection, schedule: Q04DX002 (ip), vehicle: saline
[20] = dose: 200.0 mg/kg/injection, schedule: Q04DX002 (ip), vehicle: saline
[21] = dose: 400.0 mg/kg/injection, schedule: Q04DX002 (ip), vehicle: saline

In the case of `C1CCC([N-]C2CCCCC2)CC1.C1CCC([N-]C2CCCCC2)CC1.[Cl][Pt+2][Cl]`, the T/C (dose: 100.0 mg/kg/injection, schedule: Q01DX001 (sc), vehicle: other) is reported as 103 % of control and the T/C (dose: 200.0 mg/kg/injection, schedule: Q01DX001 (sc), vehicle: other) is reported as 107 % of control.

In the case of `O=C1/C(=C/c2ccc(O)cc2)CCC/C1=C\c1ccc(O)cc1`, the T/C [1] is reported as 97 % of control, the T/C [2] is reported as 93 % of control and the T/C [3] is reported as 92 % of control.

In the case of `Clc1nn2cnnc2c2ncccc12`, the T/C (dose: 12.5 mg/kg/injection, schedule: Q01DX009 (ip), vehicle: Klucel (hydroxypropylcellulose) (HPC)) is reported as 91 % of control, the T/C (dose: 25.0 mg/kg/injection, schedule: Q01DX009 (ip), vehicle: Klucel (hydroxypropylcellulose) (HPC)) is reported as 96 % of control and the T/C [4] is reported as 92 % of control and 97 % of control.

In the case of `Cc1nccc(N[N+](=O)[O-])c1C`, the T/C (dose: 12.5 mg/kg/injection, schedule: Q01DX009 (ip), vehicle: other) is reported as 100 % of control, the T/C [5] is reported as 93 % of control and the T/C [6] is reported as 117 % of control. The T/C [7] was 100 % of control and the T/C (dose: 200.0 mg/kg/injection, schedule: Q01DX009 (ip), vehicle: other) was 103 % of control.

For `C#CCSc1nnnn1-c1ccccc1`, the T/C [8] was 98 % of control, the T/C (dose: 100.0 mg/kg/injection, schedule: Q01DX009 (ip), vehicle: saline with Tween-80) was 90 % of control and the T/C (dose: 200.0 mg/kg/injection, schedule: Q01DX009 (ip), vehicle: saline with Tween-80) was 90 % of control.

For `CC(=C\c1ccc(Cl)c(Cl)c1)/C(C)=N/NC(N)=Nc1ccc(C)cc1`, the T/C [9] was 103 % of control and the T/C (dose: 50.0 mg/kg/injection, schedule: Q04DX002 (ip), vehicle: saline with Tween-80) was 111 % of control.

`CC(C)(C)C1=CC(CC(N)=O)(C(C)(C)C)OC1=O` (stereo not given) was tested, and the T/C [10] was 98 % of control, the T/C [11] was 100 % of control and the T/C [12] was 105 % of control.

In the case of `CC(C)(C)C1=CC(=O)C(=O)C(C(C)(C)C)=C1`, the T/C [5] is reported as 101 % of control, the T/C [6] is reported as 108 % of control and the T/C [7] is reported as 108 % of control.

`CCn1cnc(-c2ccccc2)c1-c1ccccc1` was tested, and the T/C (dose: 25.0 mg/kg/injection, schedule: Q04DX003 (ip), vehicle: saline with Tween-80) was 109 % of control and the T/C (dose: 50.0 mg/kg/injection, schedule: Q04DX003 (ip), vehicle: saline with Tween-80) was 100 % of control.

`COP(=O)(OC)C1c2ccccc2-c2cccc(C(=O)O)c21` (stereo not given) was tested, and the T/C [10] was 105 % of control, the T/C [11] was 106 % of control and the T/C [12] was 110 % of control.

With `COc1cc(OC)c2c(c1)C(=O)[C@]1(C)C3(C)OC(=O)C(c4ccccc43)[C@]21C` (stereo not given in full) the T/C (dose: 100.0 mg/kg/injection, schedule: Q01DX001 (ip), vehicle: Klucel (hydroxypropylcellulose) (HPC)) was 102 % of control, the T/C (dose: 200.0 mg/kg/injection, schedule: Q01DX001 (ip), vehicle: Klucel (hydroxypropylcellulose) (HPC)) was 100 % of control and the T/C (dose: 400.0 mg/kg/injection, schedule: Q01DX001 (ip), vehicle: Klucel (hydroxypropylcellulose) (HPC)) was 105 % of control.

In the case of `COC(=O)c1nc2c(c(=O)n(C)c(=O)n2C)n1C`, the T/C [1] is reported as 94 % of control, the T/C [2] is reported as 96 % of control and the T/C [3] is reported as 89 % of control.

For `Cc1cc(NC(=O)Nc2ccc(Cl)cc2)no1`, the T/C [13] was 100 % of control, the T/C [14] was 95 % of control and the T/C [15] was 100 % of control.

`CC(C(=O)O)C(Nc1ncnc2c1ncn2C1OC(CO)C(O)C1O)C(=O)O` (stereo not given) was tested, and the T/C (dose: 100.0 mg/kg/injection, schedule: Q04DX003 (ip), vehicle: saline) was 98 % of control, the T/C (dose: 200.0 mg/kg/injection, schedule: Q04DX003 (ip), vehicle: saline) was 100 % of control and the T/C (dose: 400.0 mg/kg/injection, schedule: Q04DX003 (ip), vehicle: saline) was 98 % of control.

With `Cc1ccc(NC(=O)C(c2ccccc2)c2ccccc2)cc1` the T/C [13] was 98 % of control, the T/C [14] was 97 % of control and the T/C [15] was 92 % of control.

With `COc1cc2c(cc1OC)C1c3cc(OC)c(OC)cc3CCN1CC2` the T/C (dose: 3.13 mg/kg/injection, schedule: Q01DX009 (ip), vehicle: water) was 106 % of control, the T/C (dose: 6.25 mg/kg/injection, schedule: Q01DX009 (ip), vehicle: water) was 106 % of control and the T/C (dose: 12.5 mg/kg/injection, schedule: Q01DX009 (ip), vehicle: water) was 100 % of control. For the same compound, the T/C (dose: 25.0 mg/kg/injection, schedule: Q01DX009 (ip), vehicle: water) was 107 % of control.

`Fc1ccc(NC(=S)SCc2ccc(Cl)c(Cl)c2)cc1` was tested, and the T/C (dose: 50.0 mg/kg/injection, schedule: Q01DX009 (ip), vehicle: suspension in saline) was 90 % of control, the T/C (dose: 100.0 mg/kg/injection, schedule: Q01DX009 (ip), vehicle: suspension in saline) was 90 % of control and the T/C (dose: 200.0 mg/kg/injection, schedule: Q01DX009 (ip), vehicle: suspension in saline) was 102 % of control.

With `NCCC1CCCCN1` (stereo not given) the T/C (dose: 50.0 mg/kg/injection, schedule: Q01DX001 (ip), vehicle: saline) was 95 % of control, the T/C (dose: 100.0 mg/kg/injection, schedule: Q01DX001 (ip), vehicle: saline) was 105 % of control and the T/C (dose: 200.0 mg/kg/injection, schedule: Q01DX001 (ip), vehicle: saline) was 105 % of control.

With `CCOC(=O)CC1(O)CSC(=C(C(=O)OCC)C(=O)OCC)N1c1ccccc1` (stereo not given) the T/C [16] was 98 % of control, the T/C [17] was 91 % of control and the T/C [18] was 102 % of control.

`CC1OC(=O)C(C2OC2C)=CC1O` (stereo not given) was tested, and the T/C (dose: 50.0 mg/kg/injection, schedule: Q01DX005 (ip), vehicle: saline) was 97 % of control, the T/C (dose: 100.0 mg/kg/injection, schedule: Q01DX005 (ip), vehicle: saline) was 105 % of control and the T/C (dose: 200.0 mg/kg/injection, schedule: Q01DX005 (ip), vehicle: saline) was 105 % of control.

`C=CC1=C(C)C2=NC1=CC1=NC(=CC3=C(C)C4=C(O)C(C(=O)O)C(=C5NC(=C2)C(C)C5CCC(=O)O)C4=N3)C(CC)=C1C` (stereo not given) was tested, and the T/C (dose: 50.0 mg/kg/injection, schedule: Q01DX005 (ip), vehicle: suspension in saline) was 98 % of control, the T/C (dose: 100.0 mg/kg/injection, schedule: Q01DX005 (ip), vehicle: suspension in saline) was 103 % of control and the T/C (dose: 200.0 mg/kg/injection, schedule: Q01DX005 (ip), vehicle: suspension in saline) was 98 % of control.

In the case of `CN1C(=O)CC(=O)N(C)P1(=O)Oc1ccccc1`, the T/C [19] is reported as 101 % of control, the T/C [20] is reported as 101 % of control and the T/C [21] is reported as 101 % of control.

In the case of `CC([NH-])CC(C)[NH-].O=C(O)C(=O)O.[Pt+2]` (stereo not given), the T/C (dose: 12.5 mg/kg/injection, schedule: Q04DX002 (ip), vehicle: saline with Tween-80) is reported as 150 % of control and the T/C [9] is reported as 174 % of control.

`CC(=O)Nc1ccc(-c2csc(Nc3ccnc4cc(Cl)ccc34)n2)cc1` was tested, and the T/C [16] was 93 % of control and 95 % of control, the T/C [17] was 92 % of control and the T/C [18] was 90 % of control and 92 % of control.

With `CC1(C#N)N=C(c2ccccc2)c2ccccc2N1C(=O)Oc1ccccc1` (stereo not given) the T/C [1] was 98 % of control and the T/C [2] was 98 % of control.

`CCCCCCCCCCCCCCCC(=O)Nc1ncc([N+](=O)[O-])s1` was tested, and the T/C [4] was 86 % of control, the T/C (dose: 100.0 mg/kg/injection, schedule: Q01DX009 (ip), vehicle: Klucel (hydroxypropylcellulose) (HPC)) was 96 % of control and the T/C (dose: 200.0 mg/kg/injection, schedule: Q01DX009 (ip), vehicle: Klucel (hydroxypropylcellulose) (HPC)) was 96 % of control.

`C1OC2C1OC1COC12` (stereo not given) was tested, and the T/C (dose: 60.0 mg/kg/injection, schedule: Q01DX005 (ip), vehicle: saline) was 108 % of control, the T/C (dose: 120.0 mg/kg/injection, schedule: Q01DX005 (ip), vehicle: saline) was 100 % of control and the T/C (dose: 240.0 mg/kg/injection, schedule: Q01DX005 (ip), vehicle: saline) was 107 % of control.

For `Cc1coc2c1CCC(C)C2` (stereo not given), the T/C (dose: 12.5 mg/kg/injection, schedule: Q01DX009 (ip), vehicle: saline with Tween-80) was 92 % of control, the T/C (dose: 25.0 mg/kg/injection, schedule: Q01DX009 (ip), vehicle: saline with Tween-80) was 107 % of control and the T/C [8] was 100 % of control and 110 % of control.

`O=C(O)c1ccc2ccccc2n1` was tested, and the T/C [19] was 96 % of control, the T/C [20] was 94 % of control and the T/C [21] was 104 % of control.
